This is an account of results in patent publication US20240076285A1, “COMPOUNDS AND COMPOSITIONS FOR TREATING CONDITIONS ASSOCIATED WITH STING ACTIVITY” (IFM Due, Inc., priority 2020, published 2024).

Broadly, the EC50 is the concentration giving half of the maximal effect. A higher EC50 goes with a less potent agent.

Structures are written as SMILES.

The experiment has as its target T1, hSTING (Homo sapiens, UniProt Q86WV6, G230A/H232R/R293Q/R71H).
T1 construct: host or cells: THP1-Dual KO-IFNAR2 cells
The experiment in a line: STING reporter assay in THP1-Dual KO-IFNAR2 cells (2'3'cGAMP stimulation, luciferase reporter). The format is cell-based. The note with it: 15 μM 2'3'cGAMP, 24 h, class symbols. How it is done:
STING pathway activation by the compounds described herein was measured using THP1-Dual™ cells (KO-IFNAR2).
THP1-Dual™ KO-IFNAR2 Cells (obtained from invivogen) were maintained in RPMI, 10% FCS, 5 ml P/S, 2 mM L-glut, 10 mM Hepes, and 1 mM sodium pyruvate. Compounds were spotted in empty 384 well tissue culture plates (Greiner 781182) by Echo for a final concentration of 0.0017-100 μM. Cells were plated into the TC plates at 40 μL per well, 2×10E6 cells/mL. For activation with STING ligand, 2′3′cGAMP (MW 718.38, obtained from Invivogen), was prepared in Optimem media.
The following solutions were prepared for each 1×384 plate: • Solution A: 2 mL Optimem with one of the following stimuli: • 60 μL of 10 mM 2′3′cGAMP→150 μM stock • Solution B: 2 mL Optimem with 60 μL Lipofectamine 2000→Incubate 5 min at RT
2 mL of solution A and 2 ml Solution B was mixed and incubated for 20 min at room temperature (RT). 20 μL of transfection solution (A+B) was added on top of the plated cells, with a final 2′3′cGAMP concentration of 15 μM. The plates were then centrifuged immediately at 340 g for 1 minute, after which they were incubated at 37° C., 5% CO2, >98% humidity for 24 h. Luciferase reporter activity was then measured. EC50 values were calculated by using standard methods known in the art.
Luciferase reporter assay: 10 μL of supernatant from the assay was transferred to white 384-plate with flat bottom and squared wells. One pouch of QUANTI-Luc™ Plus was dissolved in 25 mL of water. 100 μL of QLC Stabilizer per 25 mL of QUANTI-Luc™ Plus solution was added. 50 μL of QUANTI-Luc™ Plus/QLC solution per well was then added. Luminescence was measured on a Platereader (e.g., Spectramax I3X (Molecular Devices GF3637001)).
Luciferase reporter activity was then measured. EC50 values were calculated by using standard methods known in the art.
On the technique in general: A reporter such as luciferase makes a cellular process visible.

T1 sequence (Q86WV6 whole entry R71H/G230A/H232R/R293Q): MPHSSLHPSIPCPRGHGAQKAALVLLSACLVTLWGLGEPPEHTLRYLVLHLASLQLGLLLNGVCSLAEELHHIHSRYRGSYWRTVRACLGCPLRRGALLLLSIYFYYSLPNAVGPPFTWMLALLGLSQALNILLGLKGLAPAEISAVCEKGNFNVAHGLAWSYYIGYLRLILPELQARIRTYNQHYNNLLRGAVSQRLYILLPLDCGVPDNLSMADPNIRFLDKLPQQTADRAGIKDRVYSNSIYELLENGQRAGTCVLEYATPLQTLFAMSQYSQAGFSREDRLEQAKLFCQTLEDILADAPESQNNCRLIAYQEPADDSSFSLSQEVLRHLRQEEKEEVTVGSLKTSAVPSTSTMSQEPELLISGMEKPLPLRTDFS

In turn, `N#Cc1cc(Nc2cc(Cl)cc(OC(F)(F)F)c2)cc(Nc2cc(Cl)c3cc[nH]c3c2)n1` [Compound 167, 6-[(4-chloro-1H-indol-6-yl)amino]-4-{[3-chloro-5-(trifluoromethoxy)phenyl]amino}pyridine-2-carbonitrile] displayed an EC50 of 0.2 to 1 µM.
For `N#Cc1cc(Nc2ccc(F)c(F)c2)cc(Nc2cc(Cl)c3cc[nH]c3c2)n1` [Compound 168, 6-[(4-chloro-1H-indol-6-yl)amino]-4-[(3,4-difluorophenyl)amino]pyridine-2-carbonitrile] the value was 0.04 to 0.2 µM; for `N#Cc1cc(Nc2ccc(F)c(Cl)c2)cc(Nc2cc(Cl)c3cc[nH]c3c2)n1` [Compound 169, 6-[(4-chloro-1H-indol-6-yl)amino]-4-[(3-chloro-4-fluorophenyl)amino]pyridine-2-carbonitrile], 0.04 to 0.2 µM; for `N#Cc1cc(Nc2cc(F)cc(F)c2)cc(Nc2cc(Cl)c3cc[nH]c3c2)n1` [Compound 170, 6-[(4-chloro-1H-indol-6-yl)amino]-4-[(3,5-difluorophenyl)amino]pyridine-2-carbonitrile], 0.04 to 0.2 µM.
`N#Cc1cc(Nc2cc(F)cc(Cl)c2)cc(Nc2cc(Cl)c3cc[nH]c3c2)n1` [Compound 171, 6-[(4-chloro-1H-indol-6-yl)amino]-4-[(3-chloro-5-fluorophenyl)amino]pyridine-2-carbonitrile] registered an EC50 of 0.2 to 1 µM.
For `Cc1nc2cc(Nc3cc(C#N)nc(Nc4cc(Cl)c5cc[nH]c5c4)c3)ccc2s1` [Compound 172, 6-[(4-chloro-1H-indol-6-yl)amino]-4-[(2-methyl-1,3-benzothiazol-5-yl)amino]pyridine-2-carbonitrile], the EC50 fell in the range of 0.2 to 1 µM.
The same measure for `N#Cc1cc(Nc2ccc(C(F)(F)F)c(Cl)c2)cc(Nc2cc(Cl)c3cc[nH]c3c2)n1` [Compound 173, 6-[(4-chloro-1H-indol-6-yl)amino]-4-{[3-chloro-4-(trifluoromethyl)phenyl]amino}pyridine-2-carbonitrile]: 0.2 to 1 µM; for `CCc1ccc(Nc2cc(C#N)nc(Nc3cc(Cl)c4cc[nH]c4c3)c2)cn1` [Compound 174, 6-[(4-chloro-1H-indol-6-yl)amino]-4-[(6-ethylpyridin-3-yl)amino]pyridine-2-carbonitrile]: 0.2 to 1 µM; for `N#Cc1cc(Nc2cncc(Cl)c2)cc(Nc2cc(Cl)c3cc[nH]c3c2)n1` [Compound 175, 6-[(4-chloro-1H-indol-6-yl)amino]-4-[(5-chloropyridin-3-yl)amino]pyridine-2-carbonitrile]: 0.2 to 1 µM.
The same measure for `Cc1nn(C)c2ccc(Nc3cc(C#N)nc(Nc4cc(Cl)c5cc[nH]c5c4)c3)cc12` [Compound 176, 6-[(4-chloro-1H-indol-6-yl)amino]-4-[(1,3-dimethyl-1H-indazol-5-yl)amino]pyridine-2-carbonitrile]: 0.2 to 1 µM; for `N#Cc1cc(Nc2ccc3c(c2)OC(F)(F)O3)cc(Nc2cc(Cl)c3cc[nH]c3c2)n1` [Compound 177, 6-[(4-chloro-1H-indol-6-yl)amino]-4-[(2,2-difluoro-2H-1,3-benzodioxol-5-yl)amino]pyridine-2-carbonitrile]: 0.04 to 0.2 µM.
For `CC1(C)C(=O)Nc2cc(Nc3cc(C#N)nc(Nc4cc(Cl)c5cc[nH]c5c4)c3)ccc21` [Compound 178, 6-[(4-chloro-1H-indol-6-yl)amino]-4-[(3,3-dimethyl-2-oxo-2,3-dihydro-1H-indol-6-yl)amino]pyridine-2-carbonitrile] the value was 0.2 to 1 µM; for `Cc1nc2ccc(Nc3cc(C#N)nc(Nc4cc(Cl)c5cc[nH]c5c4)c3)cc2s1` [Compound 179, 6-[(4-chloro-1H-indol-6-yl)amino]-4-[(2-methyl-1,3-benzothiazol-6-yl)amino]pyridine-2-carbonitrile], 0.2 to 1 µM; for `N#Cc1cc(Nc2ccc3c(c2)C(=O)NC3)cc(Nc2cc(Cl)c3cc[nH]c3c2)n1` [Compound 180, 6-[(4-chloro-1H-indol-6-yl)amino]-4-[(3-oxo-2,3-dihydro-1H-isoindol-5-yl)amino]pyridine-2-carbonitrile], 1 to 5 µM.
Molecule `N#Cc1cc(Nc2ccc3c(c2)CC(=O)N3)cc(Nc2cc(Cl)c3cc[nH]c3c2)n1` [Compound 181, 6-[(4-chloro-1H-indol-6-yl)amino]-4-[(2-oxo-2,3-dihydro-1H-indol-5-yl)amino]pyridine-2-carbonitrile] had an EC50 of 1 to 5 µM.
In turn, `N#Cc1cc(Nc2ccc(OC(F)F)nc2)cc(Nc2cc(Cl)c3cc[nH]c3c2)n1` [Compound 182, 6-[(4-chloro-1H-indol-6-yl)amino]-4-{[6-(difluoromethoxy)pyridin-3-yl]amino}pyridine-2-carbonitrile] gave an EC50 of 0.04 to 0.2 µM.
Molecule `N#Cc1cc(Nc2ccc(C(F)(F)F)nc2)cc(Nc2cc(Cl)c3cc[nH]c3c2)n1` [Compound 183, 6-[(4-chloro-1H-indol-6-yl)amino]-4-{[6-(trifluoromethyl)pyridin-3-yl]amino}pyridine-2-carbonitrile] returned an EC50 of 0.2 to 1 µM.
For `Cc1ccc(Nc2cc(C#N)nc(Nc3cc(Cl)c4cc[nH]c4c3)c2)cn1` [Compound 184, 6-[(4-chloro-1H-indol-6-yl)amino]-4-[(6-methylpyridin-3-yl)amino]pyridine-2-carbonitrile] the value was 0.2 to 1 µM; for `COc1cc(Cl)cc(Nc2cc(C#N)nc(Nc3cc(Cl)c4cc[nH]c4c3)c2)c1` [Compound 185, 6-[(4-chloro-1H-indol-6-yl)amino]-4-[(3-chloro-5-methoxyphenyl)amino]pyridine-2-carbonitrile], 0.04 to 0.2 µM; for `N#Cc1cc(Nc2cc(F)cc(C(F)(F)F)c2)cc(Nc2cc(Cl)c3cc[nH]c3c2)n1` [Compound 186, 6-[(4-chloro-1H-indol-6-yl)amino]-4-{[3-fluoro-5-(trifluoromethyl)phenyl]amino}pyridine-2-carbonitrile], 0.2 to 1 µM.
The same measure for `N#Cc1cc(Nc2cncc(C(F)(F)F)c2)cc(Nc2cc(Cl)c3cc[nH]c3c2)n1` [Compound 187, 6-[(4-chloro-1H-indol-6-yl)amino]-4-{[5-(trifluoromethyl)pyridin-3-yl]amino}pyridine-2-carbonitrile]: 0.2 to 1 µM.
In the case of `N#Cc1cc(Nc2ccc3c(c2)CCC3)cc(Nc2cc(Cl)c3cc[nH]c3c2)n1` [Compound 188, 6-[(4-chloro-1H-indol-6-yl)amino]-4-[(2,3-dihydro-1H-inden-5-yl)amino]pyridine-2-carbonitrile], the EC50 lay within 0.04 to 0.2 µM.
For `N#Cc1cc(Nc2ccc3c(c2)OC(F)(F)C(F)(F)O3)cc(Nc2cc(Cl)c3cc[nH]c3c2)n1` [Compound 189, 6-[(4-chloro-1H-indol-6-yl)amino]-4-[(2,2,3,3-tetrafluoro-2,3-dihydro-1,4-benzodioxin-6-yl)amino]pyridine-2-carbonitrile] the value was 0.04 to 0.2 µM; for `CNC(=O)c1ccc(Nc2cc(C#N)nc(Nc3cc(Cl)c4cc[nH]c4c3)c2)cc1F` [Compound 190, 4-({2-[(4-chloro-1H-indol-6-yl)amino]-6-cyanopyridin-4-yl}amino)-2-fluoro-N-methylbenzamide], 1 to 5 µM.
`N#Cc1cc(Nc2ccc3c(c2)OCCO3)cc(Nc2cc(Cl)c3cc[nH]c3c2)n1` [Compound 191, 6-[(4-chloro-1H-indol-6-yl)amino]-4-[(2,3-dihydro-1,4-benzodioxin-6-yl)amino]pyridine-2-carbonitrile]: the EC50 lay within 1 to 5 µM.
